Source: US10000775B2, “Biosynthesis of 1-undecene and related terminal olefins” (The Regents of the University of California, priority 2013, dated 2018)

How the values were obtained:
Format in all cases: biochemical, Pseudomonas fluorescens Pf-5
[1] = system: PFL_4321; experiment: In vitro enzymatic assays of PFL_4321 with fatty acid substrates or analogs; conditions: purified PFL_4321, Fe2+, ascorbic acid
Method: A typical condition is as follows: 1 mL of reaction mixture contains 50 mM MES buffer (pH 6.2), 300 mM NaCl, 100 μM (NH4)2Fe(SO4)2, 1 mM ascorbic acid, 100 μM fatty acid substrate or analogs, and 10 μM enzyme. The reaction was performed in a sealed headspace vial at 30° C., initiated by adding lauric acid and quenched by injecting equal volume of 5 M NaOH. 1-Undecene production was analyzed and quantified by using the SPME-GCMS method. To determine the kinetic parameters of PFL_4321 on lauric acid, initial velocities at 1, 10, 20, 50, 100, and 150 μM of lauric acid were measured (25 mM lauric acid solution was prepared by adding 0.5% tergitol and heating at 65° C. for 10 min). The reactions were quenched at 2, 4, 6, 8, and 10 seconds, and the acquired turnover rates were fit to the Michaelis-Menten equation using GraphPad Prism to obtain kcat and Km. The kcat and Km of myristic acid and capric acid were determined similarly.
To acquire the kinetic parameters of PFL_4321 on 11-aminoundecanoic acid and 12-aminododecanoic acid, initial velocities at 25, 50, 100, 150, 200, 250, 500, and 700 μM were measured. 50 μl of aliquots of the reaction were quenched at 1, 1.5, 2, 2.5, 3, 3.5, 4, 4.5, 5, 5.5, and 6 minutes by adding 100 μl of acetonitrile. Denatured enzymes were removed by centrifugation at 15,000 g for 20 min. LC-HRMS analysis was carried out on an Agilent Technologies 6520 Accurate-Mass Q-TOF LC-MS instrument equipped with an Agilent Eclipse Plus C18 column (3.5 μm, 4.6×100 mm). 10 μL of the solution was injected into LC-HRMS and a linear gradient of 55 to 95% CH3CN (vol/vol) over 15 min in H2O with 0.1% (vol/vol) formic acid at a flow rate of 0.5 mL/min was used for analysis. The exact masses of aminoundec-1-ene and aminodec-1-ene were extracted, and the peaks were integrated and compared with the standard compounds.

[2] = system: PFL_4321; experiment: Metal ion requirement of PFL_4321 in vitro (1-undecene production from lauric acid)
Method: Additional in vitro assays were performed with PFL_4321 using lauric acid, its esters, or thioesters as potential substrates. […] PFL_4321 was incubated with lauric acid in the presence of various metal ions, including Fe^2+, Fe^3+, Mg^2+, Ca^2+, Mn^2+, Co^2+, Ni^2+, Cu^2+, and Zn^2+.

[3] = system: PFL_4321; experiment: Test of H2O2 as a possible substrate
Method: To examine whether the H2O2/Fe^3+ or the H2O2/Fe^2+ system provides for the PFL_4321 activity, anaerobic enzymatic reactions in the glove box were performed. The deoxygenated reaction mixture contained 50 mM MES buffer (pH 6.2), 100 mM NaCl, 100 μM PFL_4321, 100 μM either FeCl3 or (NH4)2Fe(SO4)2, 1 mM LA, and various amount of H2O2 (100, 200, 500, 1000, 5000 μM), and 1-undecene production was analyzed. The aerobic reaction was carried out under similar conditions except that the O2 was provided by mixing with the equal volume of O2-saturated buffer solution (50 mM MES, pH 6.2, 100 mM NaCl).

[4] = system: PFL_4321; experiment: Survey of reductive cofactors/cosubstrates under iron-limited conditions; conditions: iron-limiting conditions; 1 mM reductive cofactor
Method: FIG. 7 illustrates a comparison of 1-undecene production by using various reductive cofactors/cosubstrates under iron-limited conditions. 2.5 mL of reaction mixture contains 100 μM MES (pH 6.1), 300 mM NaCl, 50 μM lauric acid, 5 μM PFL_4321, 0.1 μM (NH4)2Fe(SO4)2, and 1 mM reductive cofactor. When needed, 40 μM FAD, FMN, ferredoxin, or phenazine, and 20 μM flavin reductase (FL-R) or ferredoxin reductase (FR) were added.
A survey was conducted to identify the possible reductive cofactor/cosubstrates according to the well-studied oxygen-activating iron-dependent oxygenases, including but not limited to α-ketoglutarate, ascorbic acid, glutathione, cysteine, nicotinamides, flavins, ferredoxin (F. H. Vaillancourt et al., Nature 436, 1191, 2005; W. C. Chang et al., Nature 496, 114, 2013; L. M. Mirica et al., J Am Chem Soc 130, 8122, 2008; P. C. Bruijnincx et al., Chem Soc Rev 37, 2716, 2008). […] Accordingly, ascorbic acid was included in all of the following in vitro assays and the kinetic parameters of PFL_4321 toward lauric acid (C12) were determined (FIG. 8).

[5] = system: PFL_4321; experiment: Reductive co-substrate screening, with chlorite dismutase coupled assay; conditions: coupled with chlorite dismutase reaction to generate O2 in situ
Method: FIG. 28 illustrates a comparison of 1-undecene production by using various reductive cofactors/cosubstrates in the presence of excessive O2 provided by the coupled […] dismutase reaction. The reaction mixture contains 100 μM MES (pH 6.1), 300 mM NaCl, 1 mM lauric acid (dissolved in 0.5% tergitol), 100 μM PFL_4321, 100 μM (NH4)2Fe(SO4)2, 2 μM chlorite dismutase, 4 mM sodium chlorite, and 2 mM reductive cofactor/co-substrates. When needed, 40 μM FAD, FMN, ferredoxin, PQQ, or PMS, and 20 μM flavin reductase (FL-R) or ferredoxin reductase (FR) were added. 1-undecene production was analyzed after reacting for 100 min. Error bars represent standard deviations from at least three independently performed experiments.
To survey the possible reductive co-substrates, the oxygenated buffer solution (50 mM MES, pH 6.2, 100 mM NaCl) was mixed with an equal volume of an O2-free solution containing 50 mM MES buffer (pH 6.2), 100 mM NaCl, 200 μM PFL_4321, 200 μM (NH4)2Fe(SO4)2, 2 mM LA, and 4 mM of the reductive co-substrate, so that the final mixture contained 50 mM MES buffer (pH 6.2), 100 mM NaCl, 100 μM PFL_4321, 100 μM (NH4)2Fe(SO4)2, 1 mM LA, and 2 mM of the reductive co-substrate. The reaction was carried out in a sealed GC vial due to the semi-volatility of 1-undecene. […]

Molecule | conversion of the substrate by PFL_4321 (to the corresponding minus-1-carbon 1-alkene or other product) [1] | further results
CCCCCCCCCC=CC(=O)O [2,3-dodecenoic acid] | no activity | –
CCCCCCCCC(C)CCC(=O)O (centres unmarked) [4-methyldodecanoic acid] | converted to their corresponding terminal olefins | –
C#CCCCCCCCCC(=O)O [10-undecynoic acid] | catalyzed the conversion | –
NCCCCCCCCCCC(=O)O [11-aminoundecanoic acid] | catalyzed the conversion | –
O=C(O)CCCCCCCCCCBr [11-bromoundecanoic acid] | catalyzed the conversion | –
CC(C)CCCCCCCCCC(=O)O [11-methyldodecanoic acid] | converted to their corresponding terminal olefins | –
NCCCCCCCCCCCC(=O)O [12-aminododecanoic acid] | catalyzed the conversion | –
O=C(O)CCCCCCCCCCCBr [12-bromododecanoic acid] | catalyzed the conversion | –
O=C(O)CN(CCN(CC(=O)O)CC(=O)O)CC(=O)O [EDTA, ethylenediaminetetraacetic acid] | – | effect on 1-undecene formation by PFL_4321, lauric acid and E. coli crude extract ([2]; addition of chelating agent): quenched
[Fe+2] [Fe^2+] | – | 1-undecene production by PFL_4321 with lauric acid in the presence of the metal ion ([2]; PFL_4321 incubated with lauric acid and metal ion): elicited the 1-undecene production
OO [H2O2] | – | 1-undecene formation in the presence of H2O2 ([3]; anaerobic reactions with either PFL_4321-Fe(III) or PFL_4321-Fe(II)): no 1-undecene was formed; 1-undecene formation in the presence of H2O2 ([3]; both H2O2 and O2, PFL_4321-Fe(III)): no 1-undecene was formed; effect of H2O2 on 1-undecene formation ([3]; reaction containing O2 and PFL_4321-Fe(II)): did not promote
[2H]C([2H])(CCCCCCCCCC)C(=O)O [[α,α-D2]lauric acid] | led to the production of 1-undecene retaining both deuterium atoms | –
O=C1O[C@H]([C@@H](O)CO)C(O)=C1O [ascorbic acid] | – | effect on the yield of 1-undecene [4]: significantly increased; multiple turnovers for PFL_4321 in vitro [5]: allowed for multiple turnovers; rate of 1-undecene production with multiple turnovers [5]: four
CCCCCCCCCC(=O)O [capric acid] | converted | –
CCCCCCCC(=O)O [caprylic acid] | failed to act | –
N[C@@H](CS)C(=O)O [cysteine] | – | effect on the yield of 1-undecene [4]: modest effect
O=S(O)S(=O)O [dithionite] | – | effect on 1-undecene production by PFL_4321 ([3]; added to reduce O2 to H2O2 in situ): inhibited
CCCCCCCCCCCCCC(=O)O [myristic acid] | converted | –
CCCCCCCCCCCCCCCC(=O)O [palmitic acid] | failed to act | –
CCCCCCCCCCC(O)C(=O)O (stereo not drawn) [α-hydroxydodecanoic acid] | transformed | –
CCCCCCCCCC(O)CC(=O)O (stereo not drawn) [β-hydroxydodecanoic acid] | no activity | –
[D23]lauric acid | led to the production of [D22]1-undecene | –
